Here are results for 26 compounds from US6391916B1, “Enediyne derivatives” (The Hong Kong University of Science and Technology, priority 2000, dated 2002).

Data set [1] relates to φX174 RFI (Form I) double stranded DNA. Kind of data set: DNA cleavage of supercoiled φX174 RFI (Form I) DNA, agarose gel electrophoresis and densitometry. In kind it is biochemical. The following applies: FIG. 1; 100 μM, pH range 7.0-8.5, 72 hours.
For data set [2] the test system is unchanged. The data set is described as above. In kind it is biochemical. The following applies: for net DNA cut (%) / DNA cleavage potency relative to Compound A: 37° C.; for net DNA cut (%): TEA buffer pH 8.5, 20% DMSO; for DNA cleavage potency relative to Compound A: 72 hours. The procedure: DNA cleavage studies on the compounds of this invention were performed by using supercoiled, covalently closed, circular φX174 RFI (Form I) double stranded DNA. Thus, a 54.3 μM/bp (micromolar per base pair) solution of φX174 RFI DNA and a compound in the indicated concentration in TEA buffer (pH 8.5) containing 20% DMSO was incubated at 37° C. for 48-72 hours and analyzed by 1% agarose gel electrophoresis to separate the various forms of DNA. DNA cleavage was indicated by the formation of nicked relaxed circular DNA (Form II) or linearized DNA (Form III), which was visualized using ethidium bromide stain. A photo picture of the gel was taken over a 365 nanometer ultra-violet light transilluminator and the relative densities of DNA bands were quantitated by a GS-700 imaging densitometer (BIO-RAD). The percentage of net DNA cleavage was calculated by the following equation:
Net DNA Cleavage (%)={[(Form II)s+2×(Form III)s]/[(Form I)s+(Form II)s+2×(Form III)s]×100}−{(Form II)c/[(Form I)c+(Form II)c]×100}
wherein the subscripts “s” and “c” refer to as the samples and controls, respectively.

Data set [3] has as its system P388 mice T cell leukemia cells. Put plainly: Cytotoxicity by MTT assay in P388 cells. Type of data set: cell-based, mouse. The procedure:
Cytotoxicity was assessed in P388 mice T cell leukemia cells by MTT [3-(4,5-dimethylthiazol-2-yl)-2,5-diphenyl-2H-tetrazolium bromide] assay. Cell suspension (1×10^5 cells/mL) was plated in 96 well microtiter plates at 50 μL/well and it was followed by 50 μL/well of the test compound in serially diluted concentrations. The cells were incubated at 37° C. in a humidified atmosphere containing 5% CO2 in air for 72 hours at which time the tetrazolium dye, MTT, was added. After another 3 hours incubation, 100 μL/well of acidified 2-propanol (0.04 N HCl) was added. The optical densities of the plates were measured with a microplate reader (BIO-RAD) at 570 nm. The greater the absorbance the greater the number of live cells. The results are expressed as an IC50 which is the drug concentration required to inhibit cell proliferation to 50% of that of untreated control cells. The detailed procedure is found in Mosman, J. Immunol. Methods 65:55 (1983); Ferrari et al., Immunol. Methods 131:165 (1990).
For orientation: Tetrazolium dyes change colour on reduction, which living cells bring about.

The conditions of data set [4]: at 37° C.; cited from earlier work.
[5] abbreviates: P388 mouse leukemia cells, 37° C., 72 h, 5% CO2.

In general, IC50 refers to the concentration at which inhibition is half-maximal. Low readings indicate inhibition by little substance, high ones a need for much substance. A word on the half-life: it is the time needed for the level to fall by half in the phase considered.

Marks after values point to notes of the source that are not given here.

Consider `OC1C#CCCCCC#C/C1=C\c1ccccc1` (stereo not drawn) [Compound 6, (E)-4-(Phenylmethylidene)cyclodeca-1,5-diyn-3-ol], for which the “DNA cleavage activity (in words)” value in data set [1] is reported as “less potent compared to the corresponding acetate, Compound 29”.

Consider `CC(=O)OC1C#CCCCCC#C/C1=C\c1ccccc1` (stereo not drawn) [Compound 29, (E)-3-Acetoxy-4-(phenylmethylidene)cyclodeca-1,5-diyne], for which the “net DNA cut (%)” value in data set [2] (At 20 μM) is 19.3[b] %. In data set [1], the “DNA cleavage activity (in words)” value is listed as “slightly higher DNA cleavage activity in the basic pHs”. In addition, it took 48 µM to reach half-maximal inhibition in data set [3] (setting [5]) (IC50).

Consider `COc1ccc(/C=C2\C#CCCCCC#CC2OC(C)=O)cc1` (stereo not drawn) [Compound 30a, (E)-3-Acetoxy-4-[(4′-methoxyphenyl)methylidene]cyclodeca-1,5-diyne], for which the “net DNA cut (%)” value in data set [2] (At 20 μM) is 86.4[b] %. Moreover, in data set [3] (setting [5]), half-maximal inhibition (IC50) was put at 15 µM.

Regarding `CC(=O)OC1C#CCCCCC#C/C1=C\c1cccc2ccccc12` (stereo not drawn) [Compound 30b, (E)-3-Acetoxy-4-(1′-naphthylmethylidene)cyclodeca-1,5-diyne], the “net DNA cut (%)” value was 33.5[d] % in data set [2] (At 5 μM) and 77.7[b] % in data set [2] (At 20 μM). In addition, the IC50 in data set [3] (Mus musculus, P388 cells) was 2.4 µM; in data set [3] (setting [5]) it was 2.4 µM.

On to `CC(=O)OC1C#CCCCCC#C/C1=C\c1ccc2ccccc2c1` (stereo not drawn) [Compound 30c, (E)-3-Acetoxy-4-(2′-naphthylmethylidene)cyclodeca-1,5-diyne], for which the “net DNA cut (%)” value in data set [2] (At 20 μM) was 82.3[b] %. Further, the IC50 came to 2.8 µM in data set [3] (Mus musculus, P388 cells) and 2.8 µM in data set [3] (setting [5]).

As to `COCC(=O)OC1C#CCCCCC#C/C1=C\c1ccccc1` (stereo not drawn) [Compound 31, (E)-3-Methoxyacetoxy4-(phenylmethylidene)cyclodeca-1,5-diyne], the “net DNA cut (%)” value in data set [2] (At 20 μM) is 13.2[b] %. Moreover, the “DNA cleavage potency relative to Compound A” value in data set [2] (FIG. 2, pH 8.5) is reported as “ca. 100 fold”. Also, the “DNA cleavage activity (in words)” value in data set [2] (FIG. 2, concentration range 5-100 μM, pH 8.5) was “same level of DNA cleavage activity as enediyne, Compound 42”. Moreover, the IC50 in data set [3] (setting [5]) stood at 23 µM.

Regarding `COCC(=O)OC1C#CCCCCC#C/C1=C\c1cccc2ccccc12` (stereo not drawn) [Compound 32b, (E)-3-Methoxyacetoxy-4-(1′-naphthylmethylidene)cyclodeca-1,5-diyne], the “net DNA cut (%)” value in data set [2] (At 5 μM) was 38.8[d] %; in data set [2] (At 20 μM), 87.4[b] %. In data set [3] (setting [5]), this compound returned an IC50 of 12 µM.

As for `COCC(=O)OC1C#CCCCCC#C/C1=C\c1ccc2ccccc2c1` (stereo not drawn) [Compound 32c, (E)-3-Methoxyacetoxy-4-(2′-naphthylmethylidene)cyclodeca-1,5-diyne], in data set [2] (At 20 μM), the “net DNA cut (%)” value is 71.9[b] %. For the same compound, inhibition in data set [3] (setting [5]) was half-maximal at 28 µM (IC50).

For the compound `COc1ccc(C(O)/C2=C/C#CCCCCC#C2)cc1` (stereo not drawn) [Compound 33, 3-[1′-Hydroxy-1′-(4″-methoxyphenyl)methyl]cyclodeca-3-en-1,5-diyne], the “DNA cleavage activity (in words)” value in data set [2] (FIG. 4, 20 μM, pH 8.5) was “reduced DNA cleavage activity”.

For the compound `CC(=O)OC1C#CCCCCC#C/C1=C\c1ccccc1CO[Si](C)(C)C(C)(C)C` (stereo not drawn) [Compound 34a, (E)-3-Acetoxy-4-[2′-((((tert-butyldimethyl)silyloxy)methyl)phenyl)methylidene]cyclodeca-1,5-diyne], the “net DNA cut (%)” value in data set [2] (At 100 μM) was 10.7[c] %. This compound also had an IC50 in data set [3] (setting [5]) greater than 50 µM.

Regarding `COCC(=O)OC1C#CCCCCC#C/C1=C\c1ccccc1CO[Si](C)(C)C(C)(C)C` (stereo not drawn) [Compound 34b, (E)-4-[2′-((((tert-butyldimethyl)silyloxy)methyl)phenyl)methylidene]-3-(methoxyacetoxy)cyclodeca-1,5-diyne], the “net DNA cut (%)” value in data set [2] (At 100 μM) was 14.4[c] %. Also, the IC50 in data set [3] (setting [5]) was greater than 50 µM.

Take `CC(=O)OC1C#CCCCCC#C/C1=C\c1ccccc1CO` (stereo not drawn) [Compound 35a, (E)-3-Acetoxy-4-[2′-((hydroxymethyl)phenyl)methylidene]cyclodeca-1,5-diyne]: in data set [2] (At 100 μM), the “net DNA cut (%)” value is 23.5[c] %. This compound registered an IC50 in data set [3] (setting [5]) of 21 µM.

In the case of `COCC(=O)OC1C#CCCCCC#C/C1=C\c1ccccc1CO` (stereo not drawn) [Compound 35b], the “net DNA cut (%)” value in data set [2] (At 100 μM) is 17.6[c] %. The same compound came in with an IC50 in data set [3] (setting [5]) of 16 µM.

`CCC(=O)OC1C#CCCCCC#C/C1=C\c1cccc2ccccc12` (stereo not drawn) [Compound 36, (E)-4-(1′-Naphthylmethylidene)-3-(propanoyloxy)cyclodeca-1,5-diyne] returned an IC50 in data set [3] (setting [5]) of 10 µM.

As to `CCCCCCCC(=O)OC1C#CCCCCC#C/C1=C\c1cccc2ccccc12` (stereo not drawn) [Compound 37, (E)-4-(1′-Naphthylmethylidene)-3-(octanoyloxy)cyclodeca-1,5-diyne], the “net DNA cut (%)” value in data set [2] (At 5 μM) is 4.67[d] %. Besides, in data set [2] (FIG. 5, 5 μM, pH 8.5), the “DNA cleavage activity relative to Compound 32b” value is recorded as “ca. one eighth”. Besides, the IC50 in data set [3] (setting [5]) is 13 µM.

As to `O=C(COCc1ccccc1)OC1C#CCCCCC#C/C1=C\c1cccc2ccccc12` (stereo not drawn) [Compound 38, (E)-3-(Benzyloxy)acetoxy4-(1′-naphthylmethylidene)cyclodeca-1,5-diyne], in data set [2] (At 5 μM), the “net DNA cut (%)” value was 38.6[d] %. Besides, in data set [3] (setting [5]), the half-maximal inhibitory concentration (IC50) amounted to 6.7 µM.

As for `COc1ccc(COCC(=O)OC2C#CCCCCC#C/C2=C\c2cccc3ccccc23)cc1` (stereo not drawn) [Compound 39, (E)-3-[(4′-Methoxybenzyl)oxy]acetoxy-4-(1″-naphthylmethylidene)cyclodeca-1,5-diyne], the “net DNA cut (%)” value in data set [2] (At 5 μM) was 26.1[d] %. The compound also showed an IC50 in data set [3] (setting [5]) of 97 µM.

On to `COc1ccc(OC)c(C(=O)OC2C#CCCCCC#C/C2=C\c2cccc3ccccc23)c1` (stereo not drawn) [Compound 40, (E)4-(1′-Naphthylmethylidene)-3-((2″,5″-dimethoxybenzoyl)oxy)cyclodeca-1,5-diyne], for which the “net DNA cut (%)” value in data set [2] (At 5 μM) is 35.6[d] %. In data set [2] (FIG. 5, 5 μM, pH 8.5), the “DNA cleavage activity (in words)” value is given as “little effect as compared to the acetate in Compound 30b”. The IC50 in data set [3] (setting [5]) was found to be 17 µM.

Turning to `O=C(OC1C#CCCCCC#C/C1=C\c1cccc2ccccc12)c1cccc2cc3ccccc3cc12` (stereo not drawn) [Compound 41, (E)-3-[(1′-Anthracenecarbonyl)oxy]-4-(1″-naphthylmethylidene)cyclodeca-1,5-diyne], the “net DNA cut (%)” value in data set [2] (At 5 μM) is 10.6[d] %. In data set [2] (FIG. 5, 5 μM, pH 8.5), the “DNA cleavage activity (in words)” value is given as “reduced the DNA cleaving potency”. Further, 11 µM corresponded to half-maximal inhibition in data set [3] (setting [5]) (IC50).

On to `COCC(=O)OC(/C1=C/C#CCCCCC#C1)c1ccccc1` (stereo not drawn) [Compound 42, 3-[(1′-Methoxyacetoxy-1′-phenyl)methyl]cyclodeca-3-en-1,5-diyne], for which the “net DNA cut (%)” value in data set [2] (At 20 μM) was 12.9[b] %. Further, in data set [2] (FIG. 2, pH 8.5), the “DNA cleavage potency relative to Compound A” value was “ca. 100 fold”. For the same compound, the IC50 in data set [3] (setting [5]) amounted to 7.7 µM.

In the case of `COCC(=O)OC(/C1=C/C#CCCCCC#C1)c1cccc2ccccc12` (stereo not drawn) [Compound 43a, 3-[(1′-Methoxyacetoxy-1′-(1″-naphthyl))methyl]cyclodeca-3-en-1,5-diyne], the “net DNA cut (%)” value in data set [2] (At 20 μM) was 67.4[b] %. The compound further had an IC50 in data set [3] (setting [5]) of 3.8 µM.

Take `COCC(=O)OC(/C1=C/C#CCCCCC#C1)c1ccc2ccccc2c1` (stereo not drawn) [Compound 43b, 3-[(1′-Methoxyacetoxy-1′-(2″-naphthyl))methyl]cyclodeca-3-en-1,5-diyne]: the “net DNA cut (%)” value in data set [2] (At 20 μM) is 77.8[b] %. This compound also came in with an IC50 in data set [3] (setting [5]) of 9.6 µM.

`COCC(=O)OC(C1=CC#CCCCCC#C1)c1ccccc1CO[Si](C)(C)C(C)(C)C` (stereo not drawn) [Compound 45, 3-[1′-(2″-(((tert-Butyldimethyl)silyloxy)methyl)phenyl)-1′-(methoxyacetoxy)methyl]cyclodeca-3en-1,5-diyne]: the “net DNA cut (%)” value in data set [2] (At 100 μM) was 4.13[c] %. Moreover, in data set [3] (setting [5]), 12 µM corresponded to half-maximal inhibition (IC50).

Regarding `COCC(=O)OC(/C1=C/C#CCCCCC#C1)c1ccccc1CO` (stereo not drawn) [Compound 48], in data set [3] (setting [5]), the IC50 is 8.1 µM.

As for `C1#CCCCCC#C/C(C2OCc3ccccc32)=C\1` (stereo not drawn) [Compound 51, 3-[2′,5′-Dihydrobenzofuran-2′-yl]cyclodeca-3-en-1,5-diyne], the “DNA cleavage activity (in words)” value in data set [2] (FIG. 6, 100 μM, pH 8.5) is listed as “less potent than Compound 42”.

On to `C1#CCCCCC#CC=C1` [cyclodeca-1,5-diyn-3-ene], for which, in data set [4], the half-life is 18 h.
